“And” between values parts separate entries of the source, which are not always exact repeats. Equal values may be shown once. The source made the active and inactive calls. The calls are words filed in the database; no cut-off is given here.
Experiments:
[1] = target: Atypical kinase COQ8A, mitochondrial (Homo sapiens) (UniProt Q8NI60); test: Inhibition of human ADCK3 assessed as percent of control at 2000 nM by KINOMEscan assay relative to control; parameters: scale not given: the % may be the effect or the level left
[2] = target: Eukaryotic translation initiation factor 2-alpha kinase 1 (Homo sapiens) (UniProt Q9BQI3); test: Inhibition of human EIF2AK1 assessed as percent of control at 2000 nM by KINOMEscan assay relative to control; parameters: scale not given: the % may be the effect or the level left
[3] = target: Serine/threonine-protein kinase 17A (Homo sapiens) (UniProt Q9UEE5); test: Inhibition of human DRAK1 assessed as percent of control at 2000 nM by KINOMEscan assay relative to control; parameters: scale not given: the % may be the effect or the level left
[4] = target: Serine/threonine-protein kinase 36 (Homo sapiens) (UniProt Q9NRP7); test: Inhibition of human STK36 assessed as percent of control at 2000 nM by KINOMEscan assay relative to control; parameters: scale not given: the % may be the effect or the level left
[5] = target: Serine/threonine-protein kinase N1 (Homo sapiens) (UniProt Q16512); test: Inhibition of human PKN1 assessed as percent of control at 2000 nM by KINOMEscan assay relative to control; parameters: scale not given: the % may be the effect or the level left
Chain of Serine/threonine-protein kinase N1 (Homo sapiens) (Q16512 2-942 limits assumed): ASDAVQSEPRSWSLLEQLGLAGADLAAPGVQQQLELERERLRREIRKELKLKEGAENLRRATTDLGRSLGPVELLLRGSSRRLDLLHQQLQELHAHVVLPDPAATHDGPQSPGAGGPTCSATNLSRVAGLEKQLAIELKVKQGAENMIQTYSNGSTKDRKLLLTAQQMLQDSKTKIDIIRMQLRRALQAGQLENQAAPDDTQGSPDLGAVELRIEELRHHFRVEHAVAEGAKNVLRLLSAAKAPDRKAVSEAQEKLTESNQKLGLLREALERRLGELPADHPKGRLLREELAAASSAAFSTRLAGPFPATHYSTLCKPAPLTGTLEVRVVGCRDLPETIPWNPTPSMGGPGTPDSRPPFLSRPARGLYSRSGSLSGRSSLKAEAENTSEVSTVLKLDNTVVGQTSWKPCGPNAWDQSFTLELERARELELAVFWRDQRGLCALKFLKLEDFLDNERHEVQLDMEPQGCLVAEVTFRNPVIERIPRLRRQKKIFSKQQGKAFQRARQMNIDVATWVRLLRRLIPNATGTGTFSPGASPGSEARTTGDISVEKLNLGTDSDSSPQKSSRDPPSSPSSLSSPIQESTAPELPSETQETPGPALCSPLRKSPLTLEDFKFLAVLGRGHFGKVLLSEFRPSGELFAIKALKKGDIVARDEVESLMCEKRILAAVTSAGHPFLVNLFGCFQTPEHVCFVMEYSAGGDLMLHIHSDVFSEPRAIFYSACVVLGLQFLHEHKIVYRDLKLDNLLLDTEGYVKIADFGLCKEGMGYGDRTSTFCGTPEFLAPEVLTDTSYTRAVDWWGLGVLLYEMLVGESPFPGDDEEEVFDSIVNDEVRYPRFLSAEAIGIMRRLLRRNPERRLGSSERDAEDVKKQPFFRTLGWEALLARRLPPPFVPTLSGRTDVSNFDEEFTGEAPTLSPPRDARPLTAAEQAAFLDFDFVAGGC

[6] = target: Mitogen-activated protein kinase kinase kinase 19 (Homo sapiens) (UniProt Q56UN5); test: Inhibition of human YSK4 assessed as percent of control at 2000 nM by KINOMEscan assay relative to control; parameters: scale not given: the % may be the effect or the level left
Chain of Mitogen-activated protein kinase kinase kinase 19 (Homo sapiens) (Q56UN5 whole entry): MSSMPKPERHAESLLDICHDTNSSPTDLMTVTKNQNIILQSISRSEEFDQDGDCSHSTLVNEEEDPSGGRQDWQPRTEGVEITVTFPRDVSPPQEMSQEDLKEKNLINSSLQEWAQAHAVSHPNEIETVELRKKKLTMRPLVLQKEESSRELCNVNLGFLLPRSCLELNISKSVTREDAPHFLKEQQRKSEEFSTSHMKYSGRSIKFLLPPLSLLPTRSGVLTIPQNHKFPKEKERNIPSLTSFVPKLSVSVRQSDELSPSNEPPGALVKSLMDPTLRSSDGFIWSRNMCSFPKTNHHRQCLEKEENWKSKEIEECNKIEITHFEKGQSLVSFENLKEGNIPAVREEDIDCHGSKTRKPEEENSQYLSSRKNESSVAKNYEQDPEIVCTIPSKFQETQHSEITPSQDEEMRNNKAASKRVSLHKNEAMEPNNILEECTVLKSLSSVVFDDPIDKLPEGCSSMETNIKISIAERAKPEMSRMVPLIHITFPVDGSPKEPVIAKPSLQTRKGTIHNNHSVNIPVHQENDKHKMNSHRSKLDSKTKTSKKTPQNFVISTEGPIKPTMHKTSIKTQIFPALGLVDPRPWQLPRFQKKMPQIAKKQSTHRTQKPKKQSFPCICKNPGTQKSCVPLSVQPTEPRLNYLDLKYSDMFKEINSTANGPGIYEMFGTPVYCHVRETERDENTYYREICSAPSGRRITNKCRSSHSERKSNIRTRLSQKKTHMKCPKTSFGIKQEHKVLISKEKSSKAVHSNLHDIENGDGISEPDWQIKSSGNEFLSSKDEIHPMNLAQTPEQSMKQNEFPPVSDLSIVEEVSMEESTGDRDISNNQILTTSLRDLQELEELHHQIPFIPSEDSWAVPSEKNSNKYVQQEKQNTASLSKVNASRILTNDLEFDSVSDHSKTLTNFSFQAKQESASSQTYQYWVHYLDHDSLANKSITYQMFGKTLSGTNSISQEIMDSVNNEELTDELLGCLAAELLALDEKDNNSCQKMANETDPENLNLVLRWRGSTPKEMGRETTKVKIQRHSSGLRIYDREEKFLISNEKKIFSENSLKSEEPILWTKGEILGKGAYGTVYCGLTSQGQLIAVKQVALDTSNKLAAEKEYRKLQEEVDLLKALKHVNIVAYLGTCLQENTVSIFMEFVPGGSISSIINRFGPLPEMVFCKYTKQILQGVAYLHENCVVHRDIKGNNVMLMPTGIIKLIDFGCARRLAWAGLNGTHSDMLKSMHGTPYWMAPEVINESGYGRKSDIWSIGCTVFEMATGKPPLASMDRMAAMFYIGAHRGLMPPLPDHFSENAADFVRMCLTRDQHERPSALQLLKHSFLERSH

CWR22R = test: Antitumor activity against human 22Rv1 cells expressing AR-V7 xenografted in male nude mouse assessed as suppression of tumor growth at 50 mg/kg, administered twice a day for 40 days; assay type: functional, organism-based
[7] = target: Serine/threonine-protein kinase D1 (Homo sapiens) (UniProt Q15139); test: Inhibition of human PRKD1 assessed as percent of control at 2000 nM by KINOMEscan assay relative to control; parameters: scale not given: the % may be the effect or the level left
4T1 = test: Antitumor activity against murine 4T1 cells xenografted in mouse assessed as suppression of tumor volume at 25 mg/kg, po administered twice a day; assay type: functional, organism-based
[8] = target: Serine/threonine-protein kinase BRSK2 (Homo sapiens) (UniProt Q8IWQ3); test: Inhibition of human BRSK2 assessed as percent of control at 2000 nM by KINOMEscan assay relative to control; parameters: scale not given: the % may be the effect or the level left
[9] = target: CDK4/Cyclin D3 (Homo sapiens) (UniProt P11802+P30281); test: Inhibition of human CDK4/cyclin D3 assessed as percent of control at 2000 nM by KINOMEscan assay relative to control; assay type: protein-complex assay; parameters: scale not given: the % may be the effect or the level left
[10] = test system: Tyrosine-protein kinase ABL1 (Homo sapiens), P00519 [Q252H]; test: Inhibition of non-phosphorylated human ABL1 Q252H mutant assessed as percent of control at 2000 nM by KINOMEscan assay relative to control; parameters: scale not given: the % may be the effect or the level left
[11] = target: Serine/threonine-protein kinase SBK1 (Homo sapiens) (UniProt Q52WX2); test: Inhibition of human SBK1 assessed as percent of control at 2000 nM by KINOMEscan assay relative to control; parameters: scale not given: the % may be the effect or the level left
[12] = target: Death-associated protein kinase 1 (Homo sapiens) (UniProt P53355); test: Inhibition of human DAPK1 assessed as percent of control at 2000 nM by KINOMEscan assay relative to control; parameters: scale not given: the % may be the effect or the level left
Chain of Death-associated protein kinase 1 (Homo sapiens) (P53355 whole entry, looked up): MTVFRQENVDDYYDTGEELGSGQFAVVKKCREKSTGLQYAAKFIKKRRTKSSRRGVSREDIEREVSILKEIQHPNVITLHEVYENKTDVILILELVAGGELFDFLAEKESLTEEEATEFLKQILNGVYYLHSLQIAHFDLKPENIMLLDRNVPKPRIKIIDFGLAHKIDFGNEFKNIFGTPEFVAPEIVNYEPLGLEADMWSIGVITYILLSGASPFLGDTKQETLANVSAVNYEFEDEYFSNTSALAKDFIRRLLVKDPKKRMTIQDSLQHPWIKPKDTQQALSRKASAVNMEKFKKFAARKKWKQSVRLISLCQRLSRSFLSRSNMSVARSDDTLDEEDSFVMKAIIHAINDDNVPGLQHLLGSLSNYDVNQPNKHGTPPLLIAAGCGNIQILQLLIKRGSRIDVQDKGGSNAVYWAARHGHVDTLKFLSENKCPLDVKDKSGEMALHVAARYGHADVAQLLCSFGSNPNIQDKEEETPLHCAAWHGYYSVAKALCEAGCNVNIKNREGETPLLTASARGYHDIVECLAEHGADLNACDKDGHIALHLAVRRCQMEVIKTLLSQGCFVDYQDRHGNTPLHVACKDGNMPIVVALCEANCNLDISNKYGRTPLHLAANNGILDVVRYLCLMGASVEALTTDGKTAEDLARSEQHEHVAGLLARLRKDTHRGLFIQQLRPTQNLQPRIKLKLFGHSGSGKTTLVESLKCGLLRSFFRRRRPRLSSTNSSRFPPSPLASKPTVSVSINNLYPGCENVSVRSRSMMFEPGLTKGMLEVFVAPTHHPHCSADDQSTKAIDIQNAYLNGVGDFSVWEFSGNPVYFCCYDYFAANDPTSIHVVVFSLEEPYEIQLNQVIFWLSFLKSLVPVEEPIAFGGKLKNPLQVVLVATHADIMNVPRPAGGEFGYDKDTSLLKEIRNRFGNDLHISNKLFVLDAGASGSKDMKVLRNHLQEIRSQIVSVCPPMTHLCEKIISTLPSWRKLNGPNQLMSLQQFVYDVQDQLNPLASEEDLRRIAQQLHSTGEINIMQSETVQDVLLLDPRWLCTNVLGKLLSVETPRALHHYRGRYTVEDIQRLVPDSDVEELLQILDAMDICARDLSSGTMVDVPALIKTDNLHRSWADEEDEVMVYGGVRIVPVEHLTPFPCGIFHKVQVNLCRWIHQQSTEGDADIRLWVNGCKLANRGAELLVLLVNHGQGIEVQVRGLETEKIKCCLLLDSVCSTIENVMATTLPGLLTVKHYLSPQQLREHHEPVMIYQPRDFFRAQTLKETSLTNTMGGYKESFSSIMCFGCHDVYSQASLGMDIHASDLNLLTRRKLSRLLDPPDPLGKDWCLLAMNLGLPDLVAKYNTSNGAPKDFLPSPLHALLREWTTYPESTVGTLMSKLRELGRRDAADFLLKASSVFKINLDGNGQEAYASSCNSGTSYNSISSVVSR

[13] = target: Tyrosine-protein kinase SYK (Homo sapiens) (UniProt P43405); test: Inhibition of human SYK assessed as percent of control at 2000 nM by KINOMEscan assay relative to control; parameters: scale not given: the % may be the effect or the level left
[14] = target: Cyclin-dependent kinase-like 3 (Homo sapiens) (UniProt Q8IVW4); test: Inhibition of human CDKL3 assessed as percent of control at 2000 nM by KINOMEscan assay relative to control; parameters: scale not given: the % may be the effect or the level left
Chain of Cyclin-dependent kinase-like 3 (Homo sapiens) (Q8IVW4 whole entry, looked up): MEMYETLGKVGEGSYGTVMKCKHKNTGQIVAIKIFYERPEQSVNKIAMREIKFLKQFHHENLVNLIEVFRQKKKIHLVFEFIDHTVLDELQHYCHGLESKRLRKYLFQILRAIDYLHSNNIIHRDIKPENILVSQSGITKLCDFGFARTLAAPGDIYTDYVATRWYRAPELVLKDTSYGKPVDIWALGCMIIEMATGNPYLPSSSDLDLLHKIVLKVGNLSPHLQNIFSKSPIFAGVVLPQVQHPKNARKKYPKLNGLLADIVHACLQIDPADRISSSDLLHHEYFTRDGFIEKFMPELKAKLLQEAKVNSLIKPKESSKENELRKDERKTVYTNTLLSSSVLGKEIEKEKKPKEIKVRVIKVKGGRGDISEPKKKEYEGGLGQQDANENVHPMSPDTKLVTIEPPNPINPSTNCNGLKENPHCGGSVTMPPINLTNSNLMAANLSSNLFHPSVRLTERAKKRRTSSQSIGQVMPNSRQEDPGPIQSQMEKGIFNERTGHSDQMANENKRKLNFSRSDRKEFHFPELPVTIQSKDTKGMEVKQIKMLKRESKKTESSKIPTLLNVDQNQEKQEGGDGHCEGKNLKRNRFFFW

[15] = test system: Tyrosine-protein kinase ABL1 (Homo sapiens), P00519 [E255K]; test: Inhibition of phosphorylated human ABL1 E255K mutant assessed as percent of control at 2000 nM by KINOMEscan assay relative to control; parameters: scale not given: the % may be the effect or the level left
[16] = target: Serine/threonine-protein kinase TAO3 (Homo sapiens) (UniProt Q9H2K8); test: Inhibition of human TAOK3 assessed as percent of control at 2000 nM by KINOMEscan assay relative to control; parameters: scale not given: the % may be the effect or the level left
[17] = target: Serine/threonine-protein kinase PLK2 (Homo sapiens) (UniProt Q9NYY3); test: Inhibition of human PLK2 assessed as percent of control at 2000 nM by KINOMEscan assay relative to control; parameters: scale not given: the % may be the effect or the level left
[18] = target: Ribosomal protein S6 kinase alpha-5 (Homo sapiens) (UniProt O75582); test: Inhibition of human N-terminal RPS6KA5 kinase domain 1 assessed as percent of control at 2000 nM by KINOMEscan assay relative to control; parameters: scale not given: the % may be the effect or the level left
[19] = target: Ephrin type-A receptor 4 (Homo sapiens) (UniProt P54764); test: Inhibition of human EPHA4 assessed as percent of control at 2000 nM by KINOMEscan assay relative to control; parameters: scale not given: the % may be the effect or the level left
[20] = target: Calcium/calmodulin-dependent protein kinase type 1D (Homo sapiens) (UniProt Q8IU85); test: Inhibition of human CAMK1D assessed as percent of control at 2000 nM by KINOMEscan assay relative to control; parameters: scale not given: the % may be the effect or the level left
[21] = test system: Phosphatidylinositol 4,5-bisphosphate 3-kinase catalytic subunit alpha isoform (Homo sapiens), P42336 [C420R]; test: Inhibition of human PIK3CA C420R mutant assessed as percent of control at 2000 nM by KINOMEscan assay relative to control; parameters: scale not given: the % may be the effect or the level left
[22] = target: Protein odd-skipped-related 1 (Homo sapiens) (UniProt Q8TAX0); test: Inhibition of human OSR1 assessed as percent of control at 2000 nM by KINOMEscan assay relative to control; parameters: scale not given: the % may be the effect or the level left
[23] = target: Mitogen-activated protein kinase 12 (Homo sapiens) (UniProt P53778); test: Inhibition of human p38-gamma assessed as percent of control at 2000 nM by KINOMEscan assay relative to control; parameters: scale not given: the % may be the effect or the level left
[24] = target: Insulin receptor-related protein (Homo sapiens) (UniProt P14616); test: Inhibition of human INSRR assessed as percent of control at 2000 nM by KINOMEscan assay relative to control; parameters: scale not given: the % may be the effect or the level left
[25] = target: Phosphatidylinositol 4-phosphate 5-kinase type-1 alpha (Homo sapiens) (UniProt Q99755); test: Inhibition of human PIP5K1A assessed as percent of control at 2000 nM by KINOMEscan assay relative to control; parameters: scale not given: the % may be the effect or the level left
Chain of Phosphatidylinositol 4-phosphate 5-kinase type-1 alpha (Homo sapiens) (Q99755 whole entry): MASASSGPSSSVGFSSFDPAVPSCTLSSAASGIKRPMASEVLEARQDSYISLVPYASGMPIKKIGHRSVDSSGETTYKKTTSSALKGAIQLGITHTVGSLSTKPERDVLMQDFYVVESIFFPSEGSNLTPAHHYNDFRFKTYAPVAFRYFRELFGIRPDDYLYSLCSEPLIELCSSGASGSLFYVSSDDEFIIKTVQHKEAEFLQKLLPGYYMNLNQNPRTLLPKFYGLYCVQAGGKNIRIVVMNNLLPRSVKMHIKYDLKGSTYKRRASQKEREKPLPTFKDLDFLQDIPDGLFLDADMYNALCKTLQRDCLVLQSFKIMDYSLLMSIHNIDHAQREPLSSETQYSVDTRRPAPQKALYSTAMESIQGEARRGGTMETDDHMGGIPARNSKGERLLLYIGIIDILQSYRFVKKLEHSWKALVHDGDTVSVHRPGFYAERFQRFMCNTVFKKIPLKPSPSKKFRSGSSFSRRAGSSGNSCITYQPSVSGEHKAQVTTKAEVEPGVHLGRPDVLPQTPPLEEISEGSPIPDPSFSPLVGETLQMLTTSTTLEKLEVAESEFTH

[26] = target: Casein kinase II subunit alpha' (Homo sapiens) (UniProt P19784); test: Inhibition of human CSNK2A2 assessed as percent of control at 2000 nM by KINOMEscan assay relative to control; parameters: scale not given: the % may be the effect or the level left
[27] = target: Serine/threonine-protein kinase 32A (Homo sapiens) (UniProt Q8WU08); test: Inhibition of human YANK1 assessed as percent of control at 2000 nM by KINOMEscan assay relative to control; parameters: scale not given: the % may be the effect or the level left
[28] = target: Hormonally up-regulated neu tumor-associated kinase (Homo sapiens) (UniProt P57058); test: Inhibition of human HUNK assessed as percent of control at 2000 nM by KINOMEscan assay relative to control; parameters: scale not given: the % may be the effect or the level left
[29] = target: LIM domain kinase 1 (Homo sapiens) (UniProt P53667); test: Inhibition of human LIMK1 assessed as percent of control at 2000 nM by KINOMEscan assay relative to control; parameters: scale not given: the % may be the effect or the level left

SMILES: CN(C)C(=O)c1ccc(N2CCCN(c3ccnc4sc(C(N)=O)c(N)c34)CC2)cc1
- Activity [1]: 90% and 100%
- Activity [2]: 93% and 78%
- Activity [3]: 100%
- Activity [4]: 100%
- Activity [5]: 96% and 100%
- Activity [6]: 74% and 53%
- Activity (CWR22R): Active
- Activity [7]: 88% and 92%
- Activity (4T1): Active
- Activity [8]: 100%
- Activity [9]: 95% and 97%
- Activity [10]: 94% and 75%
- Activity [11]: 100% and 83%
- Activity [12]: 92% and 88%
- Activity [13]: 95% and 100%
- Activity [14]: 100%
- Activity [15]: 100% and 82%
- Activity [16]: 98% and 73%
- Activity [17]: 100% and 86%
- Activity [18]: 75% and 100%
- Activity [19]: 100%
- Activity [20]: 87% and 93%
- Activity [21]: 100% and 86%
- Activity [22]: 100% and 88%
- Activity [23]: 98% and 100%
- Activity [24]: 99% and 89%
- Activity [25]: 100%
- Activity [26]: 92% and 100%
- Activity [27]: 89% and 97%
- Activity [28]: 99% and 100%
- Activity [29]: 100%
